This is an account of results in patent US20250304526A1, “HIGH AND MULTIPLE REDOX POTENTIAL, STABLE, AND SOLUBLE BIS-DIARYLAMINE DERIVATIVES AND USES THEREOF” (University of Kentucky Research Foundation, priority 2024, published 2025).

Holding throughout (type): physicochemical
Data set [1] in a line: Cyclic voltammetry (redox potentials, diffusion coefficients). Conditions: for Redox peak of radical cation formation (first oxidation potential): 1 mM, 0.1 M TBAPF6 in CH3CN, glassy carbon; for Kc (comproportionation constant): calculated from ΔE at 298 K. How it is done:
CV measurements were carried out in a nitrogen-filled glovebox at ambient glovebox temperature using a VSP-300 potentiostat (BioLogic). Unless otherwise indicated, the CVs were recorded in 0.2 M TBAPF6/CH3CN as electrolyte with 3 mm diameter glassy carbon (CH Instruments, Inc.) as the working electrode. A non-aqueous Ag/Ag^+ (silver wire immersed in CH3CN containing 0.1 M TBABF4 and 0.01 M AgBF4) electrode was used as the reference electrode, and a Pt wire (CH Instruments, Inc.) as the counter electrode. Before each measurement, glassy carbon electrodes were mechanically polished with an aqueous slurry of graded alumina (0.05 μm), then ultra-sonicated in water then acetone for 1 min each. Voltammograms were recorded at a scan rate of 100 mV·s^−1. Ferrocene was used as an internal reference and the oxidation potentials were calibrated with respect to ferrocene/ferrocenium (Cp2Fe^0/+) redox couple. The diffusion coefficients were determined using Randles-Sevick equation: […]
with R being the perfect gas constant (8.314 J·mol^−1·K^−1), F the Faraday's constant (96485 C·mol^−1), T the absolute temperature (˜298 K), ip is the peak current intensity (in A), n the number of transferred electrons, A the area of the electrode (cm^2), D the diffusion coefficient (cm^2·s^−1), v the scan rate (V·s^−1) and c the concentration (mol·cm^−3). Data obtained from voltammograms at scan rates of 25, 50, 75, 100, 200, 300 and 400 mV·s^−1 were used for the calculation of diffusion coefficients.
Electrochemical characterization of 1-4 was achieved by cyclic voltammetry (CV) in 0.1 M TBAPF6 in CH3CN. Glassy carbon was used as the working electrode and 1 mM of active materials were used. All derivatives featured two distinct one-electron oxidation waves upon voltage sweep. The first and the second waves correspond to the sequential neutral to radical-cation and radical-cation to dication transformations, respectively. These features are in line with the presence of two redox centers in these molecules. The redox peaks associated with the radical cation formation for molecules 1 and 2 are centered at 0 and 0.17 V vs Fc^+/Fc, respectively (FIG. 4). These values are in line with the data reported in literature for the same molecules.^8 Note that in previous literature the electrochemistry is reported in 0.1 M TBAClO4 in dichloromethane and reported versus a Ag/AgCl reference electrode. The Fc^+/Fc couple has a redox potential at 0.403 V vs SCE and 0.44 V vs Ag/AgCl reference electrode. On the other hand, molecules 3 and 4 feature the radical cation transformation redox peaks at 0.41 and 0.53 V vs Fc^+/Fc, respectively (FIG. 4).
In fact, these molecules belong to a class of compounds known as mixed-valence (MV) compounds. Mixed valency is a term that refers to a chemical species, whether organic or inorganic, with two or more redox centers that have different oxidation stated. This concept was first introduced in 1915 by Hofmann and Hoeschele. MV species are usually intensely colored due to the unique electronic transitions associated with intervalence electron transfer. CV is a useful technique in studying MV species since it provides insights on how stable one ionic species will be with respect to disproportionation, using the comproportionation constant (Kc). Kc is used to measure the ease of isolating the radical-cation rather than obtaining a mixture of neutral, radical-cationic, and dicationic species. Kc can be calculated from the ΔE which is the value of the redox potential difference between the first and the second oxidation events. Kc is a quantity used to evaluate the electronic communication between two redox centers in mixed-valence species. Large comproportionation constant, i.e. a substantial value of ΔE, is a crucial requirement for the isolation of mixed-valence species separately of other oxidation states of the species. Kc is defined as: […]

Experiment in data set [2]: as above
Conditions: 1 mM in 0.2M TBAPF6/CH3CN; for D (diffusion coefficient): Randles-Sevcik equation.

A short description of data set [3]: Galvanostatic bulk electrolysis (BE) cycling in H-cell. Particulars: for Cyclic voltammograms before and after BE (decomposition check): 0.1M TBAPF6/CH3CN, scan rate 0.2 V·s^−1. How it is done:
BE experiments were performed in custom-made H-cells. The H-cell has two electrolyte chambers separated by an ultra-fine porous glass frit (P5, Adams and Chittenden) which prevents the mixing of the electrolytes. Two homemade reticulated vitreous carbon (45 PPI, Duocel®) electrodes, placed in both chambers separately served as the working and counter electrodes. A non-aqueous Ag/Ag^+ (silver wire immersed in CH3CN containing 0.1 M TBABF4 and 0.01 M AgBF4) electrodes was used as a reference electrode and was placed next to the working electrode in the same chamber. In addition, a 3 mm-glassy carbon electrode (CH Instruments, Inc.) was attached to the working electrode chamber to record CVs before and after bulk electrolysis experiments. In each of the working and the counter electrode chambers, 3.5 mL of electrolyte containing a given concentration of the neutral active species and 0.1 M TBAPF6/CH3CN were added to both the working and the counter electrode chambers for charge-discharge cycling. The voltage cut-offs were determined by recording a CV in the working electrode side prior to the start of the bulk electrolysis experiment. The values of the cut-off voltage were set by adding 0.3 V to the calculated half-way oxidation potential determined by CV. Both the working and the counter electrode chambers were stirred throughout the bulk electrolysis experiments at a stirring speed of 900 rpm to maintain mass transfer during charging and discharging. The experiment was conducted at variable C-rates, starting with 3 C then 2 C and finally 1 C with 8 cycles run at each C-rate. The galvanostatic control and data acquisition were achieved by incorporating a BioLogic VSP potentiostat.
Galvanostatic bulk electrolysis (BE) cycling was performed to monitor the charged species self-discharge by following the coulombic efficiency (CE). BE is particularly interesting because it provides deeper insights on the electrochemical stability of the electroactive compounds upon continuous galvanostatic cycling. More information about this technique is provided in the supplementary information. Essentially, if trace impurities existing in the electrolyte trigger self-discharge of the charged species, a relatively large portion of oxidized species will switch to its uncharged form if the concentration of active species is low. However, at elevated concentrations, the relative concentration of impurities with respect to active species will be considerably lower and their effect will be minimized. In other words, higher CEs are expected when the active species concentration is larger.
CE is calculated by dividing the amount of charge passed during discharging (Qdischarge) by the amount of charge passed during charging (Qcharge). A considerably lower than 99% CE indicates instability and decomposition of active material via parasitic processes. It is known that CE is affected by the C-rate at which the battery is charged/discharged. Higher C-rates usually yield higher CEs due to the fact that less time is given for unwanted parasitic processes to consume the charged species, unlike in slow C-rates where such processes are allowed to consume charge leading to lower CEs.
BE cycling was performed at three different C-rates 3 C, 2 C, and 1 C with eight charge/discharge cycles at each C-rate. At slower charge-discharge rates, the accessed capacities were higher. This is expected due to the increase in the cell polarization at faster cycling rates.

For `COc1ccc(N(c2ccc(OC)cc2)c2ccc(N(c3ccc(OC)cc3)c3ccc(OC)cc3)cc2)cc1` [1^+⋅], in data set [1], the “Redox peak of radical cation formation (first oxidation potential)” value (from here on “Redox peak of radical cation formation”) amounted to 0 V vs Fc^+/Fc and the “Kc (comproportionation constant)” value was 3 × 10^6. For the same compound, in data set [2], the “E^o′1 (first redox potential)” value is 0.00 V vs Cp2Fe^0/+, the “E^o′2 (second redox potential)” value was 0.38 V vs Cp2Fe^0/+, the “ΔE (E^o′2 − E^o′1)” value worked out at 0.38 and the “D (diffusion coefficient)” value is given as 4.49 10^−6 cm^2 · s^−1. Moreover, the “Cyclic voltammograms before and after BE (decomposition check)” value (from here on “Cyclic voltammograms before and after BE”) in data set [3] is listed as “nearly identical”. In addition, the “Capacity retention during BE” value in data set [3] (all C-rates (3 C, 2 C, 1 C)) is on record as around 99%.

In the case of `COc1ccc(N(c2ccc(OC)cc2)c2ccc(-c3ccc(N(c4ccc(OC)cc4)c4ccc(OC)cc4)cc3)cc2)cc1` [2^+⋅], in data set [1], the “Redox peak of radical cation formation” value is listed as 0.17 V vs Fc^+/Fc and the “Kc (comproportionation constant)” value is 5 × 10^2. In data set [2], the “E^o′1 (first redox potential)” value came out at 0.17 V vs Cp2Fe^0/+, the “E^o′2 (second redox potential)” value was found to be 0.33 V vs Cp2Fe^0/+, the “ΔE (E^o′2 − E^o′1)” value is on record as 0.16 and the “D (diffusion coefficient)” value is 1.81 10^−6 cm^2 · s^−1. Besides, the “Cyclic voltammograms before and after BE” value in data set [3] is “identical CVs”. Moreover, the “Capacity retention during BE” value in data set [3] (all C-rates (3 C, 2 C, 1 C)) is on record as “good capacity retention”.

Consider `Cc1ccc(C(F)(F)F)cc1N(c1ccc(N(c2cc(C(F)(F)F)ccc2C)c2cc(C(F)(F)F)ccc2C)cc1)c1cc(C(F)(F)F)ccc1C` [3^+⋅], for which, in data set [1], the “Redox peak of radical cation formation” value was determined as 0.41 V vs Fc^+/Fc and the “Kc (comproportionation constant)” value is 3 × 10^8. Besides, in data set [2], the “E^o′1 (first redox potential)” value worked out at 0.41 V vs Cp2Fe^0/+, the “E^o′2 (second redox potential)” value is listed as 0.91 V vs Cp2Fe^0/+, the “ΔE (E^o′2 − E^o′1)” value is recorded as 0.50 and the “D (diffusion coefficient)” value is 7.67 10^−6 cm^2 · s^−1. For the same compound, the “Cyclic voltammograms before and after BE” value in data set [3] is “nearly identical features”. Moreover, in data set [3] (after 8 cycles at 1 C), the “Capacity retention during BE” value was 94%. The “Capacity retention during BE” value in data set [3] (after 8 cycles at 2 C) is given as 97%. Further, the “Capacity retention during BE” value in data set [3] (after 8 cycles at 3 C) was determined as 99%.

With `Cc1ccc(C(F)(F)F)cc1N(c1ccc(-c2ccc(N(c3cc(C(F)(F)F)ccc3C)c3cc(C(F)(F)F)ccc3C)cc2)cc1)c1cc(C(F)(F)F)ccc1C` [4^+⋅], in data set [1], the “Redox peak of radical cation formation” value turned out to be 0.53 V vs Fc^+/Fc and the “Kc (comproportionation constant)” value is recorded as 5 × 10^2. Moreover, in data set [2], the “E^o′1 (first redox potential)” value was 0.53 V vs Cp2Fe^0/+, the “E^o′2 (second redox potential)” value is recorded as 0.69 V vs Cp2Fe^0/+, the “ΔE (E^o′2 − E^o′1)” value is reported as 0.16 and the “D (diffusion coefficient)” value is 1.54 10^−6 cm^2 · s^−1. In addition, the “Cyclic voltammograms before and after BE” value in data set [3] was “substantial decrease in the peak heights”. In addition, in data set [3] (all C-rates (3 C, 2 C, 1 C)), the “Capacity retention during BE” value is “remarkable capacity decay”.
